# Test system: Phakopsora pachyrhizi
# Test: Soybean rust greenhouse test: preventive spray of young soybean plants, ABBOTT % efficacy, Colby comparison
# Format: in vivo
# Settings: for Efficacy: fungicide alone, susceptible soybean variety (Miyagishirome), evaluated 11 days after inoculation
# Procedure: One susceptible (Miyagishirome) and soybean varieties tolerant to soybean rust (Phakospora pachyrhizi) (TMG 801 and TMG 803) were cultivated in greenhouse up to 1.5-leaf stage. A suitable preparation of SDHI fungicide was produced by mixing 1 part per weight of the SDHI ingredient with 28.5 parts by weight of acetone as solvent and 1.5 parts by weight of polyoxyethylene alkyl phenyl ether as emulsifier. The concentrate was diluted with water to the desired concentrations.
# Young plants of the susceptible and tolerant soybean varieties were sprayed with the preparation of the SDHI fungicide at the stated rate of application to evaluate the activity in controlling Phakopsora pachyrhizi.
# One day after spraying, soybean plants were inoculated with an aqueous spore suspension of the causal agent of soybean rust (Phakopsora pachyrhizi). Plants were then placed in a greenhouse at approximately 20 ° C. and a relative atmospheric humidity of approximately 80%. The following trial schedule was applied:
# Plants were evaluated 11 days after inoculation. The percentage of infected leaf area was determined visually. The results were calculated according to ABBOTT (% efficacy). 0% means an efficacy which corresponds to that of the control, while an efficacy of 100% means that no disease was observed.
# The expected efficiencies for the SDHI fungicide and ASR-tolerant variety combinations were determined according to Colby's formula and compared to the observed efficiencies (Colby, S. R. (1967) Calculating synergistic and antagonistic responses of herbicide combinations, Weeds, 15: 20-22): E=x+y−xy/100
# Wherein E is the expected efficacy as a percent of the check when using the combination of a fungicide and ASR-tolerant variety; x is the efficacy of the percent check when using the fungicide; y is the efficacy of the percent check when using the ASR-tolerant variety.
# By Comparison of the expected efficacy and the observed efficacy, the synergistic effect can be discerned. If the observed percent efficacy is higher than the calculated expected percent efficacy there is a synergistic effect.
# [1] = fungicide + tolerant soybean variety TMG 803, 0.2 ppm a.i.
# [2] = fungicide + tolerant soybean variety TMG 803, 1 ppm a.i.
# [3] = fungicide + tolerant soybean variety TMG 801, 1 ppm a.i.
# [4] = fungicide + tolerant soybean variety TMG 801, 5 ppm a.i.
# [5] = fungicide + tolerant soybean variety TMG 801, 10 ppm a.i.
# [6] = fungicide + tolerant soybean variety TMG 801, 25 ppm a.i.
# [7] = fungicide + tolerant soybean variety TMG 803, 5 ppm a.i.
# [8] = fungicide + tolerant soybean variety TMG 803, 10 ppm a.i.
# [9] = fungicide + tolerant soybean variety TMG 803, 25 ppm a.i.
# [10] = fungicide + tolerant soybean variety TMG 801, 0.2 ppm a.i.
# [11] = fungicide + tolerant soybean variety TMG 801, 50 ppm a.i.
# [12] = fungicide + tolerant soybean variety TMG 803, 50 ppm a.i.
# [13] = fungicide + tolerant soybean variety TMG 803, 100 ppm a.i.
SMILES,Actual efficacy [1],"Expected value, calculated using Colby's formula [1]",Actual efficacy [2],"Expected value, calculated using Colby's formula [2]",Efficacy (0.2 ppm a.i.),Efficacy (1 ppm a.i.),Actual efficacy [3],"Expected value, calculated using Colby's formula [3]",Actual efficacy [4],"Expected value, calculated using Colby's formula [4]",Actual efficacy [5],Actual efficacy [7],"Expected value, calculated using Colby's formula [7]",Actual efficacy [8],"Expected value, calculated using Colby's formula [8]",Actual efficacy [9],"Expected value, calculated using Colby's formula [9]",Efficacy (5 ppm a.i.),Efficacy (10 ppm a.i.),Efficacy (25 ppm a.i.),further results
CC(C)C1C2CCC1c1c(NC(=O)c3cn(C)nc3C(F)F)cccc12 (stereo not drawn) [Isopyrazam],55%,30%,80%,65%,0%,50%,–,–,–,–,–,–,–,–,–,–,–,–,–,–,–
Cn1cc(C(=O)Nc2ccccc2C2CC2C2CC2)c(C(F)F)n1 (stereo not drawn) [Sedaxane],50%,30%,60%,30%,0%,0%,82%,65%,90%,79%,98%,75%,58%,95%,79%,100%,99%,40%,70%,98%,"synergistic effect (applied to TMG 803, 0.2 ppm a.i. to 1 ppm a.i. versus 5 ppm a.i. to 25 ppm a.i.): higher synergism; Expected value, calculated using Colby's formula [5]: 90%; Actual efficacy [6]: 99%; Expected value, calculated using Colby's formula [6]: 99%"
"Cc1nn(C)c(F)c1C(=O)Nc1ccccc1C(C)CC(C)C (stereo not drawn) [Penflufen, N-[2-(1,3-dimethylbutyl)phenyl]-5-fluor-1,3-dimethyl-1H-pyrazole-4-carboxamide]",70%,50%,65%,50%,0%,0%,70%,50%,70%,60%,92%,95%,60%,98%,60%,97%,78%,20%,20%,55%,"deviation of the actual efficacy from the expected value (10 ppm a.i., TMG 801 or TMG 803): highest deviations of the actual efficacy from the expected value; Actual efficacy [10]: 65%; Expected value, calculated using Colby's formula [10]: 50%; Expected value, calculated using Colby's formula [5]: 60%; Actual efficacy [6]: 98%; Expected value, calculated using Colby's formula [6]: 78%; Actual efficacy [11]: 100%; Expected value, calculated using Colby's formula [11]: 80%; Actual efficacy [12]: 100%; Expected value, calculated using Colby's formula [12]: 80%; Efficacy (50 ppm a.i.): 60%"
"Cn1cc(C(=O)Nc2ccccc2-c2cc(F)c(F)c(F)c2)c(C(F)F)n1 [Fluxapyroxad, 3-(difluoromethyl)-1-methyl-N-(3′,4′,5′-trifluorobiphenyl-2-yl)-1H-pyrazole-4-carboxamide]",30%,20%,65%,26%,0%,7%,–,–,–,–,–,70%,68%,80%,76%,97%,98%,60%,70%,98%,"synergistic effect (1 ppm a.i. applied to TMG 803, compared over all fungicides and rates): most pronounced synergistic effect"
"Cn1cc(C(=O)Nc2ccc(F)cc2-c2ccc(Cl)c(Cl)c2)c(C(F)F)n1 [Bixafen, N-(3′,4′-dichloro-5-fluoro-1,1′-biphenyl-2-yl)-3-(difluoromethyl)-1-methyl-1H-pyrazole-4-carboxamide]",60%,55%,70%,58%,0%,7%,–,–,–,–,–,75%,64%,80%,73%,96%,80%,20%,40%,55%,"synergistic effect (applied to TMG 803, concentrations from 100 ppm a.i. to 25 ppm a.i.): highest synergistic effect; Actual efficacy [12]: 98%; Expected value, calculated using Colby's formula [12]: 82%; Actual efficacy [13]: 99%; Expected value, calculated using Colby's formula [13]: 78%; Efficacy (50 ppm a.i.): 60%; Efficacy (100 ppm a.i.): 50%"

# Source: patent US9510594B2, “Use of SDHI fungicides on conventionally bred ASR-tolerant, stem canker resistant and/or frog-eye leaf spot resistant soybean varieties” (BAYER INTELLECTUAL PROPERTY GMBH, priority 2011, dated 2016)
